# Assay results reported in ChEMBL document CHEMBL5149970 (J Med Chem, 2021).
# The source made the active and inactive calls. The rule behind the calls is not given here.
# Tested on: not listed separately
# Assay: Antiproliferative activity against human EU-1 cells assessed as inhibition of cell growth incubated for 48 hrs by WST assay
# Assay type: functional, cell-based
# Conditions: EU-1, 48 h
row,SMILES,IC50
1,Cc1ccc(N(C)S(=O)(=O)c2ccc3c(c2)C2OCCC2C(c2ccc(C(=O)C(C)C)cc2)N3)cc1C (stereo unspecified),1.6 µM
2,Cc1ccc(N(C)S(=O)(=O)c2ccc3c(c2)C2OCCC2C(c2ccc(C(=O)C(C)C)cc2)N3C)cc1C (stereo unspecified),1.2 µM
3,COC(=O)c1ccc(C2Nc3c(Cl)cc(S(=O)(=O)Nc4ccc(C)c(C)c4)cc3C3OCCC23)cc1 (stereo unspecified),> 50 µM
4,Cc1ccc(NS(=O)(=O)c2ccc3c(c2)C2NCCC2C(c2ccc(C(=O)O)cc2)N3)cc1C (stereo unspecified),> 50 µM
5,Cc1ccc(NS(=O)(=O)c2ccc3c(c2)C2c4ccccc4CC2C(c2ccc(C(=O)O)cc2)N3)cc1C (stereo unspecified),20.5 µM
6,Cc1ccc(NS(=O)(=O)c2ccc3c(c2)C2OCCC2C(c2ccc(C(C)C)cc2)N3)cc1C (stereo unspecified),4.2 µM
7,CCCC(=O)c1ccc(C2Nc3ccc(S(=O)(=O)Nc4ccc(C)c(C)c4)cc3C3OCCC23)cc1 (stereo unspecified),2.9 µM
8,CC(C)C(=O)c1ccc(C2Nc3ccc(S(=O)(=O)Nc4ccccc4)cc3C3OCCC23)cc1 (stereo unspecified),3.2 µM
9,Cc1cc(NS(=O)(=O)c2ccc3c(c2)C2OCCC2C(c2ccc(C(=O)C(C)C)cc2)N3)ccc1Cl (stereo unspecified),6.3 µM
10,Cc1ccc(NS(=O)(=O)c2ccc3c(c2)[C@H]2OCC[C@H]2[C@@H](c2ccc(C(=O)C(C)C)cc2)N3)cc1C,0.3 µM
11,Cc1ccc(NS(=O)(=O)c2ccc3c(c2)C2OCCC2C(c2ccc(S(C)(=O)=O)cc2)N3)cc1C (stereo unspecified),4.1 µM
12,COC(=O)c1ccc(C2Nc3ccc(S(=O)(=O)Nc4ccc(C)c(C)c4)cc3C3OCCCC23)cc1 (stereo unspecified),4.6 µM
13,CC(C)C(=O)c1ccc(C2Nc3ccc(S(=O)(=O)Nc4ccc(Br)c(Br)c4)cc3C3OCCC23)cc1 (stereo unspecified),5.2 µM
14,Cc1ccc(NS(=O)(=O)c2ccc3c(c2)C2C=CCC2C(c2ccc(S(C)(=O)=O)cc2)N3)cc1C (stereo unspecified),6.2 µM
15,Cc1ccc(NS(=O)(=O)c2ccc3c(c2)C2OCCC2C(c2ccc(C(=O)C(C)C)cc2)N3)cc1Cl (stereo unspecified),1.6 µM
16,COC(=O)c1ccc(C2Nc3ccc(S(=O)(=O)Nc4ccc(C)c(C)c4)cc3C3NCCC23)cc1 (stereo unspecified),3.5 µM
17,Cc1ccc(NS(=O)(=O)c2ccc3c(c2)C2C=CCC2C(c2ccc(C(=O)O)cc2)N3)cc1C (stereo unspecified),7.5 µM
18,Cc1ccc(NS(=O)(=O)c2ccc3c(c2)[C@@H]2OCC[C@@H]2[C@@H](c2ccc(C(=O)C(C)C)cc2)N3)cc1C,1.9 µM
19,COC(=O)c1ccc(C2Nc3ccc(S(=O)(=O)Nc4ccc(C)c(C)c4)cc3C3c4ccccc4CC23)cc1 (stereo unspecified),18.3 µM
20,Cc1ccc(NS(=O)(=O)c2ccc3c(c2)C2OCCC2C(c2cccc(C(=O)C(C)C)c2)N3)cc1C (stereo unspecified),3.6 µM
21,Cc1ccc(NS(=O)(=O)c2ccc3c(c2)C2OCCC2C(c2ccc(C(=O)C4CCCCC4)cc2)N3)cc1C (stereo unspecified),3.1 µM
22,COC(=O)c1ccc(C2Nc3ccc(S(=O)(=O)Nc4ccc(C)c(C)c4)cc3C3OCCC23)cc1 (stereo unspecified),2.2 µM
23,CC(=O)c1cccc(C2Nc3ccc(S(=O)(=O)Nc4ccc(C)c(C)c4)cc3C3OCCC23)c1 (stereo unspecified),2 µM

row,SMILES,IC50
1,COC(=O)c1ccc(C2Nc3cc(Cl)c(S(=O)(=O)Nc4ccc(C)c(C)c4)cc3C3OCCC23)cc1 (stereo unspecified),> 50 µM
2,Cc1ccc(NS(=O)(=O)c2ccc3c(c2)[C@@H]2OCC[C@@H]2[C@H](c2ccc(C(=O)C(C)C)cc2)N3)cc1C,1.6 µM
3,Cc1ccc(NS(=O)(=O)c2cc3c(cc2Cl)NC(c2ccc(S(C)(=O)=O)cc2)C2CC=CC32)cc1C (stereo unspecified),> 50 µM
4,Cc1ccc(NS(=O)(=O)c2ccc3c(c2Cl)C2C=CCC2C(c2ccc(S(C)(=O)=O)cc2)N3)cc1C (stereo unspecified),23.4 µM
5,Cc1ccc(NS(=O)(=O)c2ccc3c(c2)C2OCCC2C(c2ccc(Br)cc2)N3)cc1C (stereo unspecified),3.6 µM
6,Cc1ccc(NS(=O)(=O)c2ccc3c(c2)C2OCCCC2C(c2ccc(C(=O)O)cc2)N3)cc1C (stereo unspecified),> 50 µM
7,Cc1ccc(NS(=O)(=O)c2ccc3c(c2)C2OCCC2C(c2ccc(C(=O)O)cc2)N3)cc1C (stereo unspecified),> 50 µM
8,Cc1ccc(NS(=O)(=O)c2ccc3c(c2)[C@H]2OCC[C@H]2[C@H](c2ccc(C(=O)C(C)C)cc2)N3)cc1C,2.4 µM
9,Cc1ccc(NS(=O)(=O)c2ccc3c(c2)C2C=CCC2C(c2ccc(C(=O)C(C)C)cc2)N3)cc1C (stereo unspecified),2.7 µM
10,CC(C)C(=O)c1ccc(C2Nc3ccc(S(=O)(=O)Nc4ccc(Cl)c(Cl)c4)cc3C3OCCC23)cc1 (stereo unspecified),5.6 µM
11,Cc1ccc(NS(=O)(=O)c2ccc3c(c2)C2OCCC2C(c2cccc4ccccc24)N3)cc1C (stereo unspecified),6.1 µM
12,Cc1cccc(NS(=O)(=O)c2ccc3c(c2)C2OCCC2C(c2ccc(C(=O)C(C)C)cc2)N3)c1 (stereo unspecified),1.4 µM
13,Cc1cc(NS(=O)(=O)c2ccc3c(c2)C2OCCC2C(c2ccc(C(=O)C(C)C)cc2)N3)ccc1C(F)(F)F (stereo unspecified),7.2 µM
14,C=CC(=O)c1ccc(C2Nc3ccc(S(=O)(=O)Nc4ccc(C)c(C)c4)cc3C3OCCC23)cc1 (stereo unspecified),30 µM
15,COC(=O)c1ccc(C2Nc3ccc(S(=O)(=O)Nc4ccc(C)c(C)c4)cc3C3C=CCC32)cc1 (stereo unspecified),4.7 µM
16,Cc1cc(NS(=O)(=O)c2ccc3c(c2)C2OCCC2C(c2ccc(C(=O)C(C)C)cc2)N3)ccc1F (stereo unspecified),2.9 µM
17,Cc1ccc(NS(=O)(=O)c2ccc3c(c2)C2CCCC2C(c2ccc(C(=O)C(C)C)cc2)N3)cc1C (stereo unspecified),7 µM
18,Cc1ccc(NS(=O)(=O)c2ccc3c(c2)C2NCCC2C(c2ccc(C(=O)C(C)C)cc2)N3)cc1C (stereo unspecified),3.8 µM
19,Cc1ccc(NS(=O)(=O)c2ccc3c(c2)C2OCCC2C(c2ccc(C(=O)C(C)C)cc2)N3)cc1 (stereo unspecified),3.3 µM
20,Cc1ccc(NS(=O)(=O)c2ccc3c(c2)C2OCCC2C(c2ccc(C(O)C(C)C)cc2)N3)cc1C (stereo unspecified),2 µM
21,CC(=O)c1ccc(C2Nc3ccc(S(=O)(=O)Nc4ccc(C)c(C)c4)cc3C3OCCC23)cc1 (stereo unspecified),0.5 µM
22,Cc1ccc(NS(=O)(=O)c2ccc3c(c2)C2OCCC2C(c2ccc(C(=O)c4ccccc4)cc2)N3)cc1C (stereo unspecified),3.2 µM
23,Cc1ccc(NS(=O)(=O)c2ccc3c(c2)C2OCCC2C(c2ccc(C(=O)C4CC4)cc2)N3)cc1C (stereo unspecified),5.2 µM

# Tested on: not listed separately
# Assay: Inhibition of colony formation in human BFU-E cells assessed as reduction in colony number and size at 1 uM incubated for 14 days by crystal violet staining based analysis
# Assay type: toxicity, cell-based
# Conditions: 336 h, time 14 day
row,SMILES,Activity
1,COc1cccc2c1C(=O)c1c(O)c3c(c(O)c1C2=O)C[C@@](O)(C(=O)CO)C[C@@H]3O[C@H]1C[C@H](N)[C@H](O)[C@H](C)O1 [DOXORUBICIN],Toxic

# Tested on: EU-1
# Assay: Inhibition of MDM2/XIAP IRES mRNA interaction in human EU-1 cells assessed as increase in PARP cleavage at 5 uM measured for 24 hrs by western blot analysis
# Assay type: cell-based
# Conditions: not given
row,SMILES,inhibition
1,Cc1ccc(NS(=O)(=O)c2ccc3c(c2)C2C=CCC2C(c2ccc(C(=O)O)cc2)N3)cc1C (stereo unspecified),Active

# Tested on: CFU-GM
# Assay: Inhibition of colony formation in human CFU-GM cells assessed as reduction in colony number and size at 1 uM incubated for 14 days by crystal violet staining based analysis
# Assay type: toxicity, cell-based
# Conditions: 336 h, time 14 day
row,SMILES,Activity
1,COc1cccc2c1C(=O)c1c(O)c3c(c(O)c1C2=O)C[C@@](O)(C(=O)CO)C[C@@H]3O[C@H]1C[C@H](N)[C@H](O)[C@H](C)O1 [DOXORUBICIN],Toxic

# Tested on: EU-1
# Assay: Inhibition of MDM2/XIAP IRES mRNA interaction in human EU-1 cells assessed as increase in caspase-3 cleavage at 5 uM measured for 24 hrs by western blot analysis
# Assay type: cell-based
# Conditions: not given
row,SMILES,inhibition
1,Cc1ccc(NS(=O)(=O)c2ccc3c(c2)C2C=CCC2C(c2ccc(C(=O)O)cc2)N3)cc1C (stereo unspecified),Active

# Tested on: EU-1
# Assay: Inhibition of MDM2/XIAP IRES mRNA interaction in human EU-1 cells assessed as increase in caspase-9 cleavage at 5 uM measured for 24 hrs by western blot analysis
# Assay type: cell-based
# Conditions: not given
row,SMILES,inhibition
1,Cc1ccc(NS(=O)(=O)c2ccc3c(c2)C2C=CCC2C(c2ccc(C(=O)O)cc2)N3)cc1C (stereo unspecified),Active
